Assay results published in patent EP1624852B1, “SUN TANNING PRODUCTS AND PRODUCTS FOR TREATMENT OF THE SKIN BEFORE AND AFTER EXPOSURE TO THE SUN” (Gecomwert Anstalt, priority 2003, dated 2004).

Tested on: skin of the forearm
Test: in vivo tanning test: skin colour read with Minolta CR 200 Chromameter after UVA irradiation
Set-up: species or system volunteers
Details: for Percentage increase WHITE (-L*) / Percentage increase RED (a*) / Percentage increase YELLOW (B*): 15 volunteers, forearm skin, UVA 10 minutes every 24 hours, irradiated untreated skin = 100%
Procedure: In order to evaluate the effectiveness of the group of components in question in extending the formation of a tan, an in vivo test with a cream containing tyrosine conjugated with 0.750 oleic acid was carried out in vivo on 15 volunteers over a period of 14 days. Three adjacent zones on the skin of the forearm of each volunteer were identified. The first irradiated zone was treated with an emulsion containing only a sun filter (placebo), the second with an emulsion containing both the filter and the lipophilic tyrosine, the third was not treated with any emulsion (control) . The three zones of the skin were irradiated simultaneously with UVA light for 10 minutes every 24 hours (1 hour after application of the creams) for two weeks. The skin colour was read instrumentally using the Minolta® CR 200 Chromameter instrument, a device for measuring the colour of surfaces which is capable of analysing the strength of the colouration using a Xenon lamp, subdividing it into three different parameters (corresponding to the white component (-L*), the red component (a*) and the yellow component (B*)). Each reading was made 24 hours after each exposure to UVA light, in order to minimise instantaneous pigmentation phenomena. The average percentage increase in the colour of the skin treated with lipophilic tyrosine in comparison with the portion of the skin treated with placebo was calculated, assigning a value of 100% to the strength of the colour of the irradiated skin in the absence of emulsion.
Values of the average percentage increase in the white, red and yellow parameters found are shown in the following table: Percentage increase in the 3 parameters

**Q.** How did the “Percentage increase WHITE (-L*)” value (1st day, emulsion with filter and lipophilic tyrosine vs placebo (filter only), reading 24 hours after exposure) turn out when tyrosine conjugated with oleic acid was run?
**A.** -70.20%

**Q.** And the “Percentage increase RED (a*)” value (1st day, vs placebo)?
**A.** 66.60%

**Q.** What about the “Percentage increase RED (a*)” value (6th day, vs placebo) of the same substance?
**A.** 73.16%

**Q.** And the “Percentage increase WHITE (-L*)” value (6th day, vs placebo)?
**A.** -79.00%

**Q.** And the “Percentage increase YELLOW (B*)” value (6th day, vs placebo)?
**A.** 62.26%

**Q.** What about the “Percentage increase RED (a*)” value (Mean after 14 days, vs placebo) of the same substance?
**A.** 73.50%

**Q.** And the “Percentage increase WHITE (-L*)” value (Mean after 14 days, vs placebo)?
**A.** -69.00%

**Q.** What about the “Percentage increase YELLOW (B*)” value (Mean after 14 days, vs placebo) of the same substance?
**A.** 65.00%

**Q.** What about the “decrease in white with simultaneous increase in the red and yellow components over time” value (treated skin in comparison with skin treated with placebo) of the same substance?
**A.** significantly greater
